Experimental data reported in patent US8097625B2, “Combination of sedative and a neurotransmitter modulator, and methods for improving sleep quality and treating depression” (priority 2003, dated 2012).

Legend:
[1] = system: subjects with insomnia related to major depressive disorder; experiment: DREAMDD clinical study: Clinical Global Impression (Severity 1=normal to 7=most extremely depressed; Global Improvement 1=very much improved to 7=very much worse); type: in vivo, human; conditions: for CGI - Global Improvement, Mean (SD) / CGI - Global Improvement, Median / CGI - Severity, Change from Baseline, Mean (SD) / CGI - Severity, Change from Baseline, Median / CGI - Severity, Observed Value, Mean (SD) / CGI - Severity, Observed Value, Median / CGI - Severity, Change from Baseline, Least Squares Mean (SE): ITT; for CGI - Severity, Change from Baseline, Least Squares Mean (SE): ANCOVA
Method: Depression Response to Eszopiclone in Adults With Major Depressive Disorder (DREAMDD): A Randomized, Double-Blind, Placebo-Controlled, Parallel-Group, 8-Week, Safety and Efficacy Study of Eszopiclone 3 mg Compared to Placebo in Subjects with Insomnia Related to Major Depressive Disorder
This study was a double-blind randomized, placebo-controlled, parallel group study. […] All subjects must satisfy DSM-IV criteria for insomnia related to major depression.
(§1) Sleep, Depression, and Productivity Questionnaires and Clinical Global Impression: The following questionnaires were administered as listed below. • Epworth Sleepiness Scale (ESS): ESS was completed by the subject at Visits 2-10. The ESS is a subjective assessment of the likelihood of falling asleep in various situations. • Insomnia Severity Index (ISI): ISI was completed by the subject at Visits 3, 5, 7, 9 and 10. The ISI is a subjective assessment of sleep quality, restedness/refreshness upon arising, daytime fatigue, attention/concentration and relationship and mood disturbances. • Work Limitations Questionnaire (WLQ): WLQ was completed by the subject at Visits 3, 5, 7, 9, and 10. The WLQ is a validated self-report instrument for measuring the degree to which chronic health problems interfere with ability to perform job roles, addressing the content of the job through a demand-level methodology. • Hamilton Depression-17: HAM-D-17 was administered via IVRS at screening and rated by a trained clinician at Visits 3, 7, 9, and 10. • SF-36: SF-36 was completed by the subject at Visits 3, 7, 9 and 10. The SF-36 represents multiple operational definitions of health, including function and dysfunction, distress and well-being, objective reports and subjective ratings, and both favorable and unfavorable self-evaluations of general health status. • Clinical Global Impression (CGI): CGI was completed by the investigator at Visits 3-10 The CGI is the investigator's subjective assessment of improvement in the subject's depressive symptoms. The response on the CGI at Visit 7 (Week 4 of double-blind treatment) was used by the investigator to assess the need for increasing the dose of fluoxetine to 40 mg daily (in the morning). […] Study Conduct
Clinical Global Impression: In this test, a medical professional rates the patient's depression and whether the improvement in depression is due to the drug treatment. Question 1) Severity: Considering your total clinical experience with this particular population, how depressed is the patient at this time? Respond by indicating 1=normal, not at all depressed, 2=borderline depressed, 3=mildly depressed, 4=moderately depressed, 5=markedly depressed, 6=severely depressed, or 7=among the most extremely depressed patients. Question 2) Global Improvement: Rate total improvement whether or not, in your judgment, it is due entirely to drug treatment. Compared to his/her condition at Visit 3, how much has he/she changed?
Methods: Patients who met DSM-IV criteria for new MDD and insomnia received fluoxetine 20 mg QAM plus either eszopiclone 3 mg (n=275) or placebo (n=270) nightly for 8 weeks. Efficacy was assessed using HAMD17 and Clinical Global Impression Improvement (CGI-I) and Severity (CGI-S). Response=50% decrease from baseline HAMD17; remission=HAMD17≦7.

[2] = system: subjects with insomnia related to major depressive disorder; experiment: DREAMDD clinical study: fluoxetine titration (20 mg to 40 mg at Visit 7); type: in vivo, human; conditions: for Subjects on Fluoxetine Hydrochloride 20 mg / Subjects on Fluoxetine Hydrochloride 40 mg: eszopiclone 3 mg group, ITT
Method: In addition, subjects were randomized at Visit 3 (end of baseline) to treatment with one of the following nightly (at bedtime): eszopiclone (3 mg) or matching placebo.
as §1
Visit 7 occurred 7 (±2) days after Visit 6. […] Double-blind dosing (at bedtime) continued nightly through Visit 9. • 1. Collected and reviewed the MEC. Recorded all changes in concurrent medications, including OTC and health and dietary supplements, and AEs that may have occurred between Visit 6 and Visit 7. • 2. […] Subjects completed the ESS, 1SI, WLQ, and SF-36 questionnaires prior to performing any other study related procedures. The questionnaires were reviewed for completeness by study staff. Any items left blank were returned to the subject for completion. • 4. A trained clinician administered the Hamilton-D-17 to assess depression symptoms. • 5. The investigator completed the Clinical Global Impression. […] If an increased dose of fluoxetine was required, the investigator dispensed the double-blind blister pack containing the 40 mg dose of fluoxetine. • 6. Dispensed the appropriate Visit 7 double-blind blister pack. […] Note: only one Visit 7 blister card was dispensed. • 7. Obtained vital signs (seated) and weight. • 8. Obtained blood and urine samples for clinical laboratory assessments including urinalysis, urine drug and alcohol screen, and a serum pregnancy tests on all women. • 9. Reviewed use of IVRS and the schedule for calling. Subjects call the IVRS the morning following this visit and on the morning of Visit 8 (prior to the visit). • 10. Issued MEC and instruct the subject on its use. • 11. Scheduled Visit 8 in 14 (±2) days. Visit 8 (Double-Blind Treatment Week 6)

[3] = Visit 4 (Week 1), 3 mg nightly + fluoxetine
[4] = Visit 5 (Week 2), 3 mg nightly + fluoxetine
[5] = Visit 6 (Week 3), 3 mg nightly + fluoxetine
[6] = Visit 7 (Week 4), 3 mg nightly + fluoxetine
[7] = Visit 8 (Week 6), 3 mg nightly + fluoxetine
[8] = Visit 9 (Week 8), 3 mg nightly + fluoxetine
[9] = Visit 10 (EOT; Week 10, after single-blind wash-out), eszopiclone 3 mg group

CN1CCN(C(=O)OC2c3nccnc3C(=O)N2c2ccc(Cl)cn2)CC1 (single isomer, unassigned; (+)) [Eszopiclone, (+) 6-(5-chloro-2-pyridinyl)-6,7-dihydro-7-oxo-5H-pyrrolo[3,4b]pyrazin-5-yl 4-methylpiperazine-1-carboxylate]
CGI - Global Improvement, Mean (SD) [1, 3]: 3.3 (0.8) | CGI - Global Improvement, Median [1, 3]: 3.0 | CGI - Severity, Change from Baseline, Mean (SD) [1, 3]: −0.3 (0.7) | CGI - Severity, Change from Baseline, Median [1, 3]: 0.0 | CGI - Severity, Observed Value, Mean (SD) [1, 3]: 4.0 (0.7) | CGI - Severity, Observed Value, Median [1, 3]: 4.0 | CGI - Severity, Change from Baseline, Least Squares Mean (SE) [1, 3]: −0.3 (0.0) | CGI - Global Improvement, Mean (SD) [1, 4]: 2.9 (0.8) | CGI - Global Improvement, Median [1, 4]: 3.0 | CGI - Severity, Change from Baseline, Mean (SD) [1, 4]: −0.8 (0.9) | CGI - Severity, Change from Baseline, Median [1, 4]: −1.0 | CGI - Severity, Observed Value, Mean (SD) [1, 4]: 3.6 (0.9) | CGI - Severity, Observed Value, Median [1, 4]: 4.0 | CGI - Severity, Change from Baseline, Least Squares Mean (SE) [1, 4]: −0.8 (0.1) | CGI - Global Improvement, Mean (SD) [1, 5]: 2.6 (0.9) | CGI - Global Improvement, Median [1, 5]: 3.0 | CGI - Severity, Change from Baseline, Mean (SD) [1, 5]: −1.1 (1.0) | CGI - Severity, Change from Baseline, Median [1, 5]: −1.0 | CGI - Severity, Observed Value, Mean (SD) [1, 5]: 3.2 (1.0) | CGI - Severity, Observed Value, Median [1, 5]: 3.0 | CGI - Severity, Change from Baseline, Least Squares Mean (SE) [1, 5]: −1.1 (0.1) | CGI - Global Improvement, Mean (SD) [1, 6]: 2.4 (1.0) | CGI - Global Improvement, Median [1, 6]: 2.0 | CGI - Severity, Change from Baseline, Mean (SD) [1, 6]: −1.4 (1.1) | CGI - Severity, Change from Baseline, Median [1, 6]: −1.0 | CGI - Severity, Observed Value, Mean (SD) [1, 6]: 3.0 (1.1) | CGI - Severity, Observed Value, Median [1, 6]: 3.0 | CGI - Severity, Change from Baseline, Least Squares Mean (SE) [1, 6]: −1.3 (0.1) | CGI - Global Improvement, Mean (SD) [1, 7]: 1.9 (0.9) | CGI - Global Improvement, Median [1, 7]: 2.0 | CGI - Severity, Change from Baseline, Mean (SD) [1, 7]: −1.8 (1.2) | CGI - Severity, Change from Baseline, Median [1, 7]: −2.0 | CGI - Severity, Observed Value, Mean (SD) [1, 7]: 2.5 (1.0) | CGI - Severity, Observed Value, Median [1, 7]: 2.5 | CGI - Severity, Change from Baseline, Least Squares Mean (SE) [1, 7]: −1.8 (0.1) | CGI - Global Improvement, Mean (SD) [1, 8]: 1.9 (1.0) | CGI - Global Improvement, Median [1, 8]: 2.0 | CGI - Severity, Change from Baseline, Mean (SD) [1, 8]: −1.9 (1.3) | CGI - Severity, Change from Baseline, Median [1, 8]: −2.0 | CGI - Severity, Observed Value, Mean (SD) [1, 8]: 2.4 (1.2) | CGI - Severity, Observed Value, Median [1, 8]: 2.0 | CGI - Severity, Change from Baseline, Least Squares Mean (SE) [1, 8]: −1.8 (0.1) | CGI - Severity, Change from Baseline, Least Squares Mean (SE) [1, 9]: −2.2 (0.1) | CGI - Global Improvement, Mean (SD) [1, 9]: 1.6 (0.9) | CGI - Global Improvement, Median [1, 9]: 1.0 | CGI - Severity, Change from Baseline, Mean (SD) [1, 9]: −2.3 (1.2) | CGI - Severity, Change from Baseline, Median [1, 9]: −2.0 | CGI - Severity, Observed Value, Mean (SD) [1, 9]: 2.0 (1.0) | CGI - Severity, Observed Value, Median [1, 9]: 2.0 | CGI-I and CGI-S scores versus placebo ([1]; p<0.05, 3 mg nightly + fluoxetine): significantly greater | Subjects on Fluoxetine Hydrochloride 20 mg ([2]; Visit 7 (Week 4)): 125 (55.8%) n (%) | Subjects on Fluoxetine Hydrochloride 40 mg ([2]; Visit 7 (Week 4)): 99 (44.2%) n (%) | Subjects on Fluoxetine Hydrochloride 20 mg ([2]; Visit 8 (Week 6)): 115 (54.0%) n (%) | Subjects on Fluoxetine Hydrochloride 40 mg ([2]; Visit 8 (Week 6)): 98 (46.0%) n (%) | Subjects on Fluoxetine Hydrochloride 20 mg ([2]; Visit 9 (Week 8)): 103 (52.8%) n (%) | Subjects on Fluoxetine Hydrochloride 40 mg ([2]; Visit 9 (Week 8)): 92 (47.2%) n (%) | antidepressant dose escalation to higher dose of fluoxetine ([2]; co-administration with fluoxetine vs placebo): less patients in this study required antidepressant dose escalation | Fluoxetine dose increases ([2]; p<0.05 vs placebo, 3 mg nightly + fluoxetine): 44%
